Assay results from article PMC6934184, “Selective DNA-PKcs inhibition extends the therapeutic index of localized radiotherapy and chemotherapy” (The Journal of Clinical Investigation, 2019).

Biological target: T1, TEK (Tie2) (Homo sapiens, UniProt Q02763)
T1 construct: purchased Thermo Fisher Scientific (Life Technologies) SelectScreen
Assay: SelectScreen Z'LYTE
Type: biochemical
Procedure, shortened: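 Percent values come from Thermo SelectScreen profiling of NU5455, combining activity and binding assays. CSF1R was run in Z'LYTE format at Km app ATP, and CAMK1 in Adapta format with ATP listed at 10.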

T1 sequence (Q02763 23-1124): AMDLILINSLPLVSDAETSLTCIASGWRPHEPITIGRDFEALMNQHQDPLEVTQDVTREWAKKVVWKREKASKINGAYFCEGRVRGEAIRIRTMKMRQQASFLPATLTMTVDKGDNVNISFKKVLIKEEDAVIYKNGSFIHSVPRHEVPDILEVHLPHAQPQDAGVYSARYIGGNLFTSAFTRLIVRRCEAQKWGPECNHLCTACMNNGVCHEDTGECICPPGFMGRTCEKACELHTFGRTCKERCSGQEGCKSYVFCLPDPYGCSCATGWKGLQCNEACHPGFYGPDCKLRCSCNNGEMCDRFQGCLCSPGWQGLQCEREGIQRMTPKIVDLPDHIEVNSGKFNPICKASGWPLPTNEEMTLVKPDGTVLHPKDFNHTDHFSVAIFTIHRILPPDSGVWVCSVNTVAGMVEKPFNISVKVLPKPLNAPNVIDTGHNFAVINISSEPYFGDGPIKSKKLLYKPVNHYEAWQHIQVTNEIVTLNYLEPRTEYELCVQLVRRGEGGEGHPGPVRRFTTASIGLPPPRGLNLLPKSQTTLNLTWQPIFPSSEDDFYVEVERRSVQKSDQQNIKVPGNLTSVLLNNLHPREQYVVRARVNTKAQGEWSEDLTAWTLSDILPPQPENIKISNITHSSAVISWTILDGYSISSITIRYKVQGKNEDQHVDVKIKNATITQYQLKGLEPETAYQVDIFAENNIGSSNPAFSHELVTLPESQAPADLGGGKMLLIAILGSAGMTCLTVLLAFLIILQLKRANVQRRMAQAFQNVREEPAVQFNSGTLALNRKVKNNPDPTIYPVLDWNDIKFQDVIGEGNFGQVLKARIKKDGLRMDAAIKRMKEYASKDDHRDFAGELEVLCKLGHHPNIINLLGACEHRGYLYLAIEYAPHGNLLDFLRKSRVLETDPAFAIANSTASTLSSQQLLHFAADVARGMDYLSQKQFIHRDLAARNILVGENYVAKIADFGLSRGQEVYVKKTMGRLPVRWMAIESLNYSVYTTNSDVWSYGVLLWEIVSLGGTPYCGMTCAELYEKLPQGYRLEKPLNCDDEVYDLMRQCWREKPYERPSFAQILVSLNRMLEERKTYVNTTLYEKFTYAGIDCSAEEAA

Question: For CN(C(=O)CN1CCOCC1)c1ccc2sc3c(-c4cccc5c(=O)cc(N6CC7CCC(C6)O7)oc45)cccc3c2c1 [NU5455], which inhibition at 1 µM is on record?
Answer: Its inhibition at 1 µM is -0.1%.
